Biological target: T1, p101/p110γ protein (PI3Kγ) (Homo sapiens, UniProt P48736)
T1 construct: HA; made in house; host or cells: Spodoptera frugiperda (Sf9) cells, baculovirus coinfection
Assay: PI3Kγ In Vitro Kinase Assay
Format: biochemical
Settings: purified recombinant p101/p110γ with G protein β1/γ2 subunits; 20 μM ATP, 25 μM PIP2; 20 minutes at room temperature; radioactive PIP3 readout
Outline: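 Baculovirus/Sf9-expressed p101/p110γ (~2.7 nM) with G protein β1/γ2, 20 μM ATP plus [γ-32P]ATP, PIP2/PE micelles (25 μM PIP2, 300 μM PE, 10 mM MgCl2) in HEPES buffer. Reaction 20 min at room temperature, stopped with H3PO4; radiolabelled PIP3 counted on filters to derive IC50 (μM).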

T1 sequence (P48736 whole entry, species assumed): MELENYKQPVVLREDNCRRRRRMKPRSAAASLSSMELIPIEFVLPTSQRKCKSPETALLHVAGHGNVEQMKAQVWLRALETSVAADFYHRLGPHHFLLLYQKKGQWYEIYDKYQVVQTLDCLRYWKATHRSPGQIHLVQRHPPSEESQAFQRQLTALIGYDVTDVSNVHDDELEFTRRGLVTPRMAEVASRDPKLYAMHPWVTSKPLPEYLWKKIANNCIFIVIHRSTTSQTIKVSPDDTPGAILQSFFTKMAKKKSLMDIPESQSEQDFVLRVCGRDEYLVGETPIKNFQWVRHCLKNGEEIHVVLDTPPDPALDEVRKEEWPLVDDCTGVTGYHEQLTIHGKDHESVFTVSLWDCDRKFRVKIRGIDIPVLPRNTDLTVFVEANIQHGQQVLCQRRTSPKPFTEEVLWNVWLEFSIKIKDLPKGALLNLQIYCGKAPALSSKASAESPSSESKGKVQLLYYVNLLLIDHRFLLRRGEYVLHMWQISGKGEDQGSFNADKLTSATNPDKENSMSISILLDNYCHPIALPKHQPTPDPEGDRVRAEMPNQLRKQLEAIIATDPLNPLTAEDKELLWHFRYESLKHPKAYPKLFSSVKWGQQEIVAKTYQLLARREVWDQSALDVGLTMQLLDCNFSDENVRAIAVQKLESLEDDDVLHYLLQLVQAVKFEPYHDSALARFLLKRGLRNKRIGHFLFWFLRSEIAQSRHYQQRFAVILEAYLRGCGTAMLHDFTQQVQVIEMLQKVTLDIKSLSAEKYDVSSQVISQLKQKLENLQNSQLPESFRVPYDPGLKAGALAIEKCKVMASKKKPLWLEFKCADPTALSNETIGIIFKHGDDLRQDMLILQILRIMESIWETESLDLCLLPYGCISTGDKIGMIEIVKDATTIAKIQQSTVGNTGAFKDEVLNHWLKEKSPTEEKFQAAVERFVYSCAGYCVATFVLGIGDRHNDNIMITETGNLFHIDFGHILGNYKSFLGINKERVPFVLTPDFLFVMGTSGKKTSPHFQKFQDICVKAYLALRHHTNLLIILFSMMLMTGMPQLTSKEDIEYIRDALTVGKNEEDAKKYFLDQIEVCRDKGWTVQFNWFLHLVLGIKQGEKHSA
T1 sequence (Q8WYR1 whole entry partner, species assumed): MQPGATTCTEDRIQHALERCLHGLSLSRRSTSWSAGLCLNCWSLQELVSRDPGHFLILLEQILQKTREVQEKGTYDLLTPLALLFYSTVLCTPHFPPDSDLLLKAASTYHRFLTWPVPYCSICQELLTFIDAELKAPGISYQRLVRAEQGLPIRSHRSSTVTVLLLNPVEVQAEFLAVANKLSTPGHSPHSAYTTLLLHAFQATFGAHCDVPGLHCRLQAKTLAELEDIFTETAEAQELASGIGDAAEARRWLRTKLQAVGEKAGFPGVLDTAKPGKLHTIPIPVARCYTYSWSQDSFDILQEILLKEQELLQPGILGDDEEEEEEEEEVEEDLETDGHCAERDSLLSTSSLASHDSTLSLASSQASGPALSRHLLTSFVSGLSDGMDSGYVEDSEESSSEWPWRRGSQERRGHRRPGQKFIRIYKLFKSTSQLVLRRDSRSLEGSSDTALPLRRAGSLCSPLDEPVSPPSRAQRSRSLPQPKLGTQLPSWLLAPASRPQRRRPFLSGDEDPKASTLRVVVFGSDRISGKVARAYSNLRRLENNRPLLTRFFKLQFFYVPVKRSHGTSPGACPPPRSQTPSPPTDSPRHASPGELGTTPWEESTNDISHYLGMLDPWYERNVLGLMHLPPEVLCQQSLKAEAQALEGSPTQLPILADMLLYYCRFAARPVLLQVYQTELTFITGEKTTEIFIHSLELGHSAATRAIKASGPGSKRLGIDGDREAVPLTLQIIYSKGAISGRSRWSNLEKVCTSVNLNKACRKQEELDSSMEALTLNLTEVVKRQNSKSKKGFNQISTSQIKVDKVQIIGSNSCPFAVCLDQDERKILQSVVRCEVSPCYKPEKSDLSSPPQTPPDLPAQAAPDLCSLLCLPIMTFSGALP

| IC50 [µM] | SMILES |
| --- | --- |
| 1.53 | O=C1NC(=S)SC1=Cc1ccc2c(c1)N(C(=O)c1ccc3nonc3c1)CCCO2 [Example 116, 5-[9-(Benzofurazan-5-carbonyl)-6,7,8,9-tetrahydro-5-oxa-9-aza-benzocyclohepten-2-ylmethylene]-2-thioxo-thiazolidin-4-one] |
| 1.91 | O=C1NC(=S)SC1=Cc1ccc2c(c1)N(C(=O)c1cccnc1)CCCO2 [Example 117, 5-[9-(Pyridine-3-carbonyl)-6,7,8,9-tetrahydro-5-oxa-9-aza-benzocyclohepten-2-ylmethylene]-2-thioxo-thiazolidin-4-one] |
| 1.87 | O=C1NC(=S)SC1=Cc1ccc2c(c1)N(C(=O)Nc1ccc(Oc3ccccc3)cc1)CCCO2 [Example 118, 2-(4-Oxo-2-thioxo-thiazolidin-5-ylidenemethyl)-7,8-dihydro-6H-5-oxa-9-aza-benzocycloheptene-9-carboxylic acid (4-phenoxy-phenyl)-amide] |
| 1.87 | O=C1NC(=S)SC1=Cc1ccc2c(c1)N(C(=O)Nc1ccc(Cl)cc1C(F)(F)F)CCCO2 [Example 120, 2-(4-Oxo-2-thioxo-thiazolidin-5-ylidenemethyl)-7,8-dihydro-6H-5-oxa-9-aza-benzocycloheptene-9-carboxylic acid (4-chloro-2-trifluoromethyl-phenyl)-amide] |
| 2.17 | COc1cccc(NC(=O)N2CCCOc3ccc(C=C4SC(=S)NC4=O)cc32)c1 [Example 122, 2-(4-Oxo-2-thioxo-thiazolidin-5-ylidenemethyl)-7,8-dihydro-6H-5-oxa-9-aza-benzocycloheptene-9-carboxylic acid (3-methoxy-phenyl)-amide] |
| 3.9 | O=C1NC(=S)SC1=Cc1ccc2c(c1)N(C(=O)c1ccco1)CCCO2 [Example 123, 5-[9-(Furan-2-carbonyl)-6,7,8,9-tetrahydro-5-oxa-9-aza-benzocyclohepten-2-ylmethylene]-2-thioxo-thiazolidin-4-one] |

From patent publication US20040138199A1, “Benzoxazines and derivatives thereof as therapeutic agents” (priority 2002, published 2004)
